pIC50: −log10 of the molar value. Converted amounts (≈) assume the structure as drawn. Read-outs that look alike come from different tables or passages of the source.
What was measured:
[1] = target: T1, full-length beta-Catenin (Uniprot ID P35222) (Homo sapiens, UniProt P35222); assay: Fluorescence polarization IC50 (beta-catenin / 5FAM-TCF4 10-53 competition); assay type: binding
T1 construct: 10 nM full-length beta-Catenin (Uniprot ID P35222)
T1 sequence (P35222 1-781): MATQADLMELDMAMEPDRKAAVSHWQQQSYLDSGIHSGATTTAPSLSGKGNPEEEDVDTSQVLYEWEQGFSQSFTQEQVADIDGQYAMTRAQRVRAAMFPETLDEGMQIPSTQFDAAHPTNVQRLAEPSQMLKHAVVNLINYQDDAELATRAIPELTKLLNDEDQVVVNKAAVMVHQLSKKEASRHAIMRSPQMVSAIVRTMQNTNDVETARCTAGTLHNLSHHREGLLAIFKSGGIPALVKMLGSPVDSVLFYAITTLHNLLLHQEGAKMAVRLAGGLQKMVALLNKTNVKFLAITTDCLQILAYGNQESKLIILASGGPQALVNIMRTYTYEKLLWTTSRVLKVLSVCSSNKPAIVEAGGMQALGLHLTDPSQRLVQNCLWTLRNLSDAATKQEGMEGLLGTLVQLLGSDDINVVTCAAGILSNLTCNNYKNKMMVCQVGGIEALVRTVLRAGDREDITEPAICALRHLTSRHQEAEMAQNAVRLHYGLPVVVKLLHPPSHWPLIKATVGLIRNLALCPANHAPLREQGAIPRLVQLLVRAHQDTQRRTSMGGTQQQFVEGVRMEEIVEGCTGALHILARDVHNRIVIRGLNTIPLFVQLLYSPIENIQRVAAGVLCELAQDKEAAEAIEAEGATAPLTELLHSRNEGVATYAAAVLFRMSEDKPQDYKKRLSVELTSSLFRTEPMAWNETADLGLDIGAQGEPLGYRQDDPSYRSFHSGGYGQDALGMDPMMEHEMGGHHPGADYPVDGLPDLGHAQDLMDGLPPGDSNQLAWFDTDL

[2] = CHI Log D procedure; assay type: physicochemical; details: for chromatographic logD: pH 7.4, CHI Log D; for CHI Log D: pH 7.4
[3] = Solubility in PBS; assay type: physicochemical
In short: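 Solubility is derived from HPLC peak areas: the ratio of the PBS supernatant peak to a 50 μM DMSO peptide peak, times 50 uM.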

[4] = target: T2, beta-catenin/TCF4 engagement (Homo sapiens, UniProt P35222); assay: Nano-BRET target engagement assay (B-cat-Halo & TCF4-Luc in HEK293 cells); assay type: cell-based; details: for inhibition at 10 µM: HEK293, 10 uM, read-out: NanoBRET % inh @ 10 uM
T2 construct: expressed in transfected cells; host or cells: HEK293
T2 sequence (P35222 1-781): T1 sequence (P35222 1-781)

[5] = fluorescence polarization, beta-catenin, read-out: FP EC50

pIC50 ([1]; read-out: beta-Catenin FP IC50)	chromatographic logD [2]	Solubility ([3]; Solubility (uM)) [µM]	inhibition at 10 µM [4] [%]	pIC50 ([4]; read-out: NanoBRET IC50)	pIC50 ([4]; read-out: NanoBRET Abs IC50)	Solubility [3] [µM]	pIC50 [1, 5]	CHI Log D [2]	Structure (SMILES)
8.00	2.23	47 (≈ 88.9 µg/mL)	45	5.17					CC(=O)N1CCC[C@]12CC=CCCCC1(CCCC=CCCCOC(=O)N3CC[C@@](C(=O)N[C@@H](Cc4ccsc4)C(=O)N[C@@H](Cc4csc5ccccc45)C(=O)N[C@@H](C(N)=O)[C@H](C)O)(C3)NC(=O)[C@H](CC(N)=O)NC(=O)[C@H](Cc3ccccc3)NC(=O)[C@H](C)NC(=O)[C@H](C)NC(=O)[C@H](CC(=O)O)NC(=O)[C@H](CC(=O)O)NC1=O)NC(=O)[C@H](CC(C)(C)C)NC(=O)[C@H](CC(=O)O)NC2=O (stereo partly drawn) [I-817, Ac-PL3-Asp-Npg-B5-Asp-Asp-Ala-Ala-Phe-Asn-PyrS2-3Thi-BztA-dThr-NH2]
8.22	2.12	48 (≈ 91.4 µg/mL)	31.4		4.82				CC(=O)N1CCC[C@]12CC=CCCCC1(CCCC=CCCCOC(=O)N3CC[C@@](C(=O)N[C@@H](Cc4ccsc4)C(=O)N[C@@H](Cc4csc5ccccc45)C(=O)N[C@H](CC(N)=O)C(N)=O)(C3)NC(=O)[C@H](CC(N)=O)NC(=O)[C@H](Cc3ccccc3)NC(=O)[C@H](C)NC(=O)[C@H](C)NC(=O)[C@H](CC(=O)O)NC(=O)[C@H](CC(=O)O)NC1=O)NC(=O)[C@H](CC(C)(C)C)NC(=O)[C@H](CC(=O)O)NC2=O (stereo partly drawn) [I-818, Ac-PL3-Asp-Npg-B5-Asp-Asp-Ala-Ala-Phe-Asn-PyrS2-3Thi-BztA-dAsn-NH2]
8.30	2.03		37.8		5.12	50 (≈ 99.5 µg/mL)			CC(=O)N1CCC[C@]12CC=CCCCC1(CCCC=CCCCOC(=O)N3CC[C@@](C(=O)N[C@@H](Cc4ccsc4)C(=O)N[C@@H](Cc4csc5ccccc45)C(=O)N[C@@H](CCC(N)=O)C(=O)N[C@@H](C)C(N)=O)(C3)NC(=O)[C@H](CC(N)=O)NC(=O)[C@H](Cc3ccccc3)NC(=O)[C@H](C)NC(=O)[C@H](C)NC(=O)[C@H](CC(=O)O)NC(=O)[C@H](CC(=O)O)NC1=O)NC(=O)[C@H](CC(C)(C)C)NC(=O)[C@H](CC(=O)O)NC2=O (stereo partly drawn) [I-819, Ac-PL3-Asp-Npg-B5-Asp-Asp-Ala-Ala-Phe-Asn-PyrS2-3Thi-BztA-Gln-Ala-NH2]
8.22	2.1	38 (≈ 75.9 µg/mL)	30.8		4.74				CC(=O)N1CCC[C@]12CC=CCCCC1(CCCC=CCCCOC(=O)N3CC[C@@](C(=O)N[C@@H](Cc4ccsc4)C(=O)N[C@@H](Cc4csc5ccccc45)C(=O)N[C@@H](Cc4c[nH]cn4)C(=O)N[C@@H](C)C(N)=O)(C3)NC(=O)[C@H](CC(N)=O)NC(=O)[C@H](Cc3ccccc3)NC(=O)[C@H](C)NC(=O)[C@H](C)NC(=O)[C@H](CC(=O)O)NC(=O)[C@H](CC(=O)O)NC1=O)NC(=O)[C@H](CC(C)(C)C)NC(=O)[C@H](CC(=O)O)NC2=O (stereo partly drawn) [I-820, Ac-PL3-Asp-Npg-B5-Asp-Asp-Ala-Ala-Phe-Asn-PyrS2-3Thi-BztA-His-Ala-NH2]
8.30	2.07	36 (≈ 71.1 µg/mL)			5.04				CC(=O)N1CCC[C@]12CC=CCCCC1(CCCC=CCCCOC(=O)N3CC[C@@](C(=O)N[C@@H](Cc4ccsc4)C(=O)N[C@@H](Cc4csc5ccccc45)C(=O)N[C@@H](CC(N)=O)C(=O)N[C@@H](C)C(N)=O)(C3)NC(=O)[C@H](CC(N)=O)NC(=O)[C@H](Cc3ccccc3)NC(=O)[C@H](C)NC(=O)[C@H](C)NC(=O)[C@H](CC(=O)O)NC(=O)[C@H](CC(=O)O)NC1=O)NC(=O)[C@H](CC(C)(C)C)NC(=O)[C@H](CC(=O)O)NC2=O (stereo partly drawn) [I-821, Ac-PL3-Asp-Npg-B5-Asp-Asp-Ala-Ala-Phe-Asn-PyrS2-3Thi-BztA-Asn-Ala-NH2]
8.30	2.09	32 (≈ 63.9 µg/mL)	37.5	< 5.00	4.74				CC(=O)N1CCC[C@]12CC=CCCCC1(CCCC=CCCCOC(=O)N3CC[C@@](C(=O)N[C@@H](Cc4ccsc4)C(=O)N[C@@H](Cc4csc5ccccc45)C(=O)N[C@@H](Cc4c[nH]cn4)C(=O)N[C@H](C)C(N)=O)(C3)NC(=O)[C@H](CC(N)=O)NC(=O)[C@H](Cc3ccccc3)NC(=O)[C@H](C)NC(=O)[C@H](C)NC(=O)[C@H](CC(=O)O)NC(=O)[C@H](CC(=O)O)NC1=O)NC(=O)[C@H](CC(C)(C)C)NC(=O)[C@H](CC(=O)O)NC2=O (stereo partly drawn) [I-823, Ac-PL3-Asp-Npg-B5-Asp-Asp-Ala-Ala-Phe-Asn-PyrS2-3Thi-BztA-His-dAla-NH2]
8.15	2.06	36 (≈ 71.1 µg/mL)			4.83				CC(=O)N1CCC[C@]12CC=CCCCC1(CCCC=CCCCOC(=O)N3CC[C@@](C(=O)N[C@@H](Cc4ccsc4)C(=O)N[C@@H](Cc4csc5ccccc45)C(=O)N[C@@H](CC(N)=O)C(=O)N[C@H](C)C(N)=O)(C3)NC(=O)[C@H](CC(N)=O)NC(=O)[C@H](Cc3ccccc3)NC(=O)[C@H](C)NC(=O)[C@H](C)NC(=O)[C@H](CC(=O)O)NC(=O)[C@H](CC(=O)O)NC1=O)NC(=O)[C@H](CC(C)(C)C)NC(=O)[C@H](CC(=O)O)NC2=O (stereo partly drawn) [I-824, Ac-PL3-Asp-Npg-B5-Asp-Asp-Ala-Ala-Phe-Asn-PyrS2-3Thi-BztA-Asn-dAla-NH2]
7.82					4.64	30 (≈ 60.1 µg/mL)	7.82	2.066	CC(=O)N1CCC[C@]12CC=CCCCC1(CCCC=CCCCCOC(=O)N3CC[C@@](C(=O)N[C@@H](Cc4ccsc4)C(=O)N[C@@H](Cc4csc5ccccc45)C(=O)N[C@@H](CCC(N)=O)C(=O)N[C@@H](C)C(N)=O)(C3)NC(=O)[C@H](CC(N)=O)NC(=O)[C@H](Cc3ccccc3)NC(=O)[C@H](C)NC(=O)[C@H](C)NC(=O)[C@H](CC(=O)O)NC(=O)[C@H](CC(=O)O)NC1=O)NC(=O)[C@H](CC(C)(C)C)NC(=O)[C@H](CC(=O)O)NC2=O (stereo partly drawn) [I-826, Ac-PL3-Asp-Npg-B5-Asp-Asp-Ala-Ala-Phe-Asn-PyrS3-3Thi-BztA-Gln-Ala-NH2]
7.82	2.08	34 (≈ 67.6 µg/mL)			4.52				CC(=O)N1CCC[C@]12CC=CCCCC1(CCCC=CCCCCOC(=O)N3CC[C@@](C(=O)N[C@@H](Cc4ccsc4)C(=O)N[C@@H](Cc4csc5ccccc45)C(=O)N[C@@H](CC(N)=O)C(=O)N[C@@H](C)C(N)=O)(C3)NC(=O)[C@H](CC(N)=O)NC(=O)[C@H](Cc3ccccc3)NC(=O)[C@H](C)NC(=O)[C@H](C)NC(=O)[C@H](CC(=O)O)NC(=O)[C@H](CC(=O)O)NC1=O)NC(=O)[C@H](CC(C)(C)C)NC(=O)[C@H](CC(=O)O)NC2=O (stereo partly drawn) [I-829, Ac-PL3-Asp-Npg-B5-Asp-Asp-Ala-Ala-Phe-Asn-PyrS3-3Thi-BztA-Asn-Ala-NH2]
7.96			32.4		4.59	50 (≈ 100 µg/mL)	7.96	2.075	CC(=O)N1CCC[C@]12CC=CCCCC1(CCCC=CCCCCOC(=O)N3CC[C@@](C(=O)N[C@@H](Cc4ccsc4)C(=O)N[C@@H](Cc4csc5ccccc45)C(=O)N[C@@H](CCC(N)=O)C(=O)N[C@H](C)C(N)=O)(C3)NC(=O)[C@H](CC(N)=O)NC(=O)[C@H](Cc3ccccc3)NC(=O)[C@H](C)NC(=O)[C@H](C)NC(=O)[C@H](CC(=O)O)NC(=O)[C@H](CC(=O)O)NC1=O)NC(=O)[C@H](CC(C)(C)C)NC(=O)[C@H](CC(=O)O)NC2=O (stereo partly drawn) [I-831, Ac-PL3-Asp-Npg-B5-Asp-Asp-Ala-Ala-Phe-Asn-PyrS3-3Thi-BztA-Gln-dAla-NH2]
8.10					4.32	50 (≈ 101 µg/mL)	8.10	2.146	CC(=O)N1CCC[C@]12CC=CCCCC1(CCCC=CCCCCOC(=O)N3CC[C@@](C(=O)N[C@@H](Cc4ccsc4)C(=O)N[C@@H](Cc4csc5ccccc45)C(=O)N[C@@H](Cc4c[nH]cn4)C(=O)N[C@H](C)C(N)=O)(C3)NC(=O)[C@H](CC(N)=O)NC(=O)[C@H](Cc3ccccc3)NC(=O)[C@H](C)NC(=O)[C@H](C)NC(=O)[C@H](CC(=O)O)NC(=O)[C@H](CC(=O)O)NC1=O)NC(=O)[C@H](CC(C)(C)C)NC(=O)[C@H](CC(=O)O)NC2=O (stereo partly drawn) [I-833, Ac-PL3-Asp-Npg-B5-Asp-Asp-Ala-Ala-Phe-Asn-PyrS3-3Thi-BztA-His-dAla-NH2]

Reference: US20240116985A1, “STAPLED PEPTIDES AND METHODS THEREOF” (priority 2020, published 2024)
